The values that follow come from publication PMC4652989, “A small-molecule inhibitor suppresses the tumor-associated mitochondrial NAD(P)^+-dependent malic enzyme (ME2) and induces cellular senescence” (Oncotarget, 2015).

Like-named read-outs stand apart in the source and are kept apart here.

For one assay, the target named is T1, m-NAD(P)-ME Q51A/E90A (Homo sapiens, UniProt P23368, E90A/Q51A).
T1 construct: made in house; host or cells: Escherichia coli BL21
Description: malic enzyme activity inhibition, dimer interface mutant. The class given is biochemical. The settings on record: Q51A/E90A pre-incubated with 40 μM EA. The method, then:
(§1) The malic enzyme reaction was assayed in a reaction buffer containing 50 mM Tris-HCl (pH 7.4) with saturated concentrations of L-malate, NAD^+ or NADP^+ and MgCl2, with various concentrations of EA in a total volume of 1 ml at 30°C. The absorbance at 340 nm was continuously monitored in a UV/VIS spectrophotometer Lambda 25 (Perkin Elmer, MA, USA). In this process, one unit of enzyme was defined as the amount of enzyme that produces 1 μmol of NAD(P)H per min under the assay conditions. An absorption coefficient of 6.22 cm^−1mM^−1 for NAD(P)H was used in the calculations.
(§2) The inhibition experiments were conducted with a series of EA concentrations in a buffer containing 50 mM Tris-HCl (pH 7.4), 40 mM malate (pH 7.4), 10 mM MgCl2 and 2 mM NAD^+ (pH 7.4).

The target in a further assay is T2, m-NAD(P)-ME E59N (Homo sapiens, UniProt P23368, E59N).
T2 construct: made in house; host or cells: Escherichia coli BL21
Description: malic enzyme activity inhibition, fumarate site mutant. Type of assay: biochemical. To be noted: E59N pre-incubated with 40 μM EA. The method, then:
as §1, §2

The next assay deals with T3, m-NAD(P)-ME R91A (Homo sapiens, UniProt P23368, R91A).
T3 construct: made in house; host or cells: Escherichia coli BL21
The assay is described as above. The class given is biochemical. The settings on record: R91A pre-incubated with 40 μM EA. The method, then:
as §1, §2

For assay [1], the system named is H1299 cells. Type of assay: cell-based, human. The settings on record: for H1299 cell number / decrease of H1299 cell number compared with the control: 24 h; for H1299 cell growth, time course: within 48 h. The method, then: H1299 cells were grown in 90% Dulbecco's Modified Eagle Medium (DMEM) with 10% fetal bovine serum (FBS) (Gibco BRL, USA) at a temperature of 37°C in a humidified 5% CO2 environment. Cells were seeded in 6-well cell culture dishes in triplicate at a density of 1 × 10^5 cells/ml medium containing 10% FBS and treated with EA or siRNA at the indicated dosage. The cells were then counted, and cell numbers were determined at the indicated time points. The control shLuc and ME2 shRNA were purchased from the Nature RNAi Core Facility, Taipei, Taiwan (NRC). The shME2 was made using pLKO 005 (TRC2 vector). The target shRNA sequence for ME2 is 5′-[…]-3′, and the target shRNA sequence for luciferase is 5′-[…]-3′.

Assay [2] has as its system H1299 cells. Briefly: senescence-associated β-galactosidase (SA-β-gal) assay. Type of assay: cell-based, human. The method, then: Cells were washed in PBS, fixed for 4 min at room temperature in approximately 2 to 3% formaldehyde or 0.2% glutaraldehyde, washed, and then incubated at 37°C under no C0_2 conditions with fresh SA-β-Gal stain solution. Cells were stained with 5-bromo-4-chloro-3-indolyl β-D-galactoside (X-Gal) for 2 to 16 h and detected using the senescence-associated β-galactosidase (SA-β-gal) assay. The percentages of SA-β-gal^+ cells were calculated by the number of positively stained cells per 1,000 cells counted in random fields.

In assay [3] the test system is m-NAD(P)-ME protein expression in H1299 cells. Description: immunoblotting of m-NAD(P)-ME in H1299 cells. Type of assay: cell-based, human. The settings on record: various concentrations of EA, within 24 h, Western blot. The method, then:
The supernatants were boiled in loading buffer, and an aliquot containing 100 μg of protein was separated by SDS-PAGE. After blotting, the PVDF membranes were incubated with anti-human m-NAD(P)-ME (ME2) (Sigma, St Louis, MO) and anti-β-actin antibodies (Santa Cruz) for 6 h, and membranes were then incubated for 1 h with the second antibody labeled with horseradish peroxidase. The antigen-antibody complexes were visualized using enhanced chemiluminescence (Amersham Pharmacia Biotech, USA).
(In general: Immunoblotting shows a protein as a band on a membrane.)

Assay [4] deals with m-NAD(P)-ME mRNA in H1299 cells. Briefly: RT-PCR of ME2 in H1299 cells. The class given is cell-based, human. To be noted: EA for 12 h. The method, then: Total RNA was isolated from H1299 cells treated with shME2 or EA for 12 h by using a total RNA reagent (MDBio, Inc., Taiwan). One microgram of RNA was reverse transcribed into cDNA using MMLV reverse transcriptase (Epicentre Biotechnologies, USA). PCR was performed in the linear range (by 25 cycles) with primers specific for ME2 and actin. The primer sequences used to amplify the target genes were as follows: ME2 forward primer, 5′-[…]-3′; ME2 reverse primer, 5′-[…]-3′; actin forward primer, 5′-[…]-3′, and reverse primer, 5′-[…]-3′.

T3 sequence (P23368 19-584 R91A): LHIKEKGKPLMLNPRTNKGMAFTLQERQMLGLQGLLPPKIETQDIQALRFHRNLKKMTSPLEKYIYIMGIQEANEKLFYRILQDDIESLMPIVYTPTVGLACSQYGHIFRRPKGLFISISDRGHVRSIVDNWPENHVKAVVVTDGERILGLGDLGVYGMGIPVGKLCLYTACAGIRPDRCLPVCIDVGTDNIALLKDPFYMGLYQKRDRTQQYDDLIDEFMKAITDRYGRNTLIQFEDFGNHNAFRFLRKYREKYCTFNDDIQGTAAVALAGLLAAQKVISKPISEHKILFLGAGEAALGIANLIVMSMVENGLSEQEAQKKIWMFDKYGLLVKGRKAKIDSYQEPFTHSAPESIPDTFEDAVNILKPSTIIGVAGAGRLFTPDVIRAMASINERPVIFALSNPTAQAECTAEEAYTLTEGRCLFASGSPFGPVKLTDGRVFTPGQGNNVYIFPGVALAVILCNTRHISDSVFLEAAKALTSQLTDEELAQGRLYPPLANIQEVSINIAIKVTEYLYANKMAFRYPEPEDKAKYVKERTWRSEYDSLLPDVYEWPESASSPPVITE
T1 sequence (P23368 19-584 Q51A/E90A): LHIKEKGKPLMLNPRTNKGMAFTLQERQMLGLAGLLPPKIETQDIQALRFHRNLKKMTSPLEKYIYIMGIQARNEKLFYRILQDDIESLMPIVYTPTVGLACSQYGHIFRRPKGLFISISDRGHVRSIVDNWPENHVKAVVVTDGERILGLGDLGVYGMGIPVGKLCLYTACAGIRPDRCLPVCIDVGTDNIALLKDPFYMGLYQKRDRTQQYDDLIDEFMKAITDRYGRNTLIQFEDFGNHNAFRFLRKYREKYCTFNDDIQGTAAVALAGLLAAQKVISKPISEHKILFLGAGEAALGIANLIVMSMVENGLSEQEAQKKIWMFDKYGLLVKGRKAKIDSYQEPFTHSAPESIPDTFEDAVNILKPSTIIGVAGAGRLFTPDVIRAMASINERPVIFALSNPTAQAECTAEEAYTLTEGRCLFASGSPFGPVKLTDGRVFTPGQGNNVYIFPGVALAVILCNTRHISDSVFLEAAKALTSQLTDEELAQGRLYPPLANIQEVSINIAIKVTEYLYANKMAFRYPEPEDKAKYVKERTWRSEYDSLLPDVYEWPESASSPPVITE
T2 sequence (P23368 19-584 E59N): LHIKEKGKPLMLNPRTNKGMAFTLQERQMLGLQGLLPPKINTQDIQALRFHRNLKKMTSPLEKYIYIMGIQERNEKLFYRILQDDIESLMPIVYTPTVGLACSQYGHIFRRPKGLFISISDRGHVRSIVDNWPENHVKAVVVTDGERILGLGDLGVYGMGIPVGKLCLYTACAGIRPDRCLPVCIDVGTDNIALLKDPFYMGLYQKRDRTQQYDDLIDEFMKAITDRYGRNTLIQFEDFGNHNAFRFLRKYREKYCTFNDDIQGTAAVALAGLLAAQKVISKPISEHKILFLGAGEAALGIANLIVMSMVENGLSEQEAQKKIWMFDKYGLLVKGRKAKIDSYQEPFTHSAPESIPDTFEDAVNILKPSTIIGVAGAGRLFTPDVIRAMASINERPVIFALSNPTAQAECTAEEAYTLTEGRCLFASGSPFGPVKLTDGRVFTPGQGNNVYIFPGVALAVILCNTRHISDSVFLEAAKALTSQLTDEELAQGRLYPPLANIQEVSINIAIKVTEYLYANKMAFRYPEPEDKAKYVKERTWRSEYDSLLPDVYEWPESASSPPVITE

As to `O=C(O)/C=C/C(=O)O` [fumarate], the “restoration of EA-inhibited enzyme activity by fumarate” value at m-NAD(P)-ME Q51A/E90A, on m-NAD(P)-ME E59N and at m-NAD(P)-ME R91A was “could not be restored” each time.
Take `O=C(O)c1cc2ccccc2c(Cc2c(O)c(C(=O)O)cc3ccccc23)c1O` [Embonic acid, embonic acid]: the H1299 cell number entry in the assay on H1299 cells [1] (5 nM EA) and in the assay with H1299 cells [1] (10 nM EA) was “did not decrease” throughout. For the same compound, the “decrease of H1299 cell number compared with the control” value with H1299 cells [1] (100 nM EA) is given as 23%; in the assay with H1299 cells [1] (1 μM EA), 30%; with H1299 cells [1] (10 μM EA), 40%. Further, the “H1299 cell growth, time course” value in the assay on H1299 cells [1] (1 μM EA) is reported as “inhibited H1299 cell growth”; in the assay with H1299 cells [1] (10 μM EA, vs 1 μM) it was “more pronounced”. The “number of SA-β-gal+ H1299 cells” value with H1299 cells [2] (1 μM EA, 0-72 h) is listed as “increased in a time-dependent manner”. Also, the “EA-induced H1299 cell senescence” value in the assay on H1299 cells [2] (10 μM EA, within 72 h, vs 1 μM) is “more prominent”. In addition, the “amount of senescence after 10 μM EA relative to 1 μM EA” value in the assay with H1299 cells [2] (time course 0-72 h, SA-β-gal+ cells) is recorded as 2 fold. In addition, in assay [3], the “protein expression of m-NAD(P)-ME in H1299 cells” value is listed as “not influenced”. In assay [4], the “mRNA synthesis of m-NAD(P)-ME in H1299 cells” value was “not influenced”.
